Laboratory results: patent publication US20230295201A1 (Gilead Sciences, Inc., priority 2020, published 2023)
Where two headings read alike, the source gives them in different places.

Columns and labels:
DENV2 replicon = experiment: DENV-2 Huh-7 Rep EC50 (replicon luminescence); type: cell-based; conditions: Dengue virus, DENV2, Huh-7, 48 h, read-out: DENV-2 Huh-7 Rep EC50
Summary of the method: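 EC50 derived from luminescence dose-response, normalised to DMSO-only 0% inhibition wells, after 1.5 h with EnduRen substrate. Compounds were first exposed for 48 h at 37° C to DENV2 replicon Huh-7 cells (5,000/well).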

in vitro [1] = conditions: human
in vitro [2] = conditions: human; remark: listed apart in the source
Method: (§1) HEp-2 (1.5×10^3 cells/well) and MT-4 (2×10^3 cells/well) cells were plated in 384-well plates and incubated with the appropriate medium containing 3-fold serially diluted compound ranging from 15 nM to 100,000 nM. Cells were cultured for 4-5 days at 37° C. Following the incubation, the cells were allowed to equilibrate to 25° C., and cell viability was determined by adding Cell-Titer Glo viability reagent. The mixture was incubated for 10 min, and the luminescence signal was quantified using an Envision plate reader. Untreated cell and cells treated at 2 μM puromycin (Sigma, St. Louis, MO) serve as 100% and 0% cell viability control, respectively.

[3] = HEp-2 CC50 (cytotoxicity, Cell-Titer Glo); type: cell-based; conditions: human; uninfected HEp-2 cells, 4-5 days
Method: The same protocol as for the determination of antiviral activity is used for the measurement of compound cytotoxicity except that the cells are not infected with RSV. Instead, an uninfected cell mixture at the same density is added at 20 ul/well to plates containing prediluted compounds, also at 100 nL/sample. Assay plates are then incubated for 4 days followed by a cell viability test using the same CellTiter Glo reagent addition and measurement of luminescent readouts.

RSV A2 = experiment: RSV NHBE EC50 (RSV A2 antiviral assay in normal human bronchial epithelial cells); type: cell-based; conditions: human respiratory syncytial virus, NHBE, 96 h, read-out: RSV NHBE EC50
HRV16 = HRV16 HELA EC50 (cytopathic effect in H1-HeLa cells); type: cell-based; conditions: 96 h, read-out: HRV16 HELA EC50
Summary of the method: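 Read-out is luminescent cell viability (CellTiter-Glo) after 96 h of infection at 33 °C, scaled between uninfected and infected-untreated wells. Before infection with titrated virus, compounds went onto H1-HeLa cells as triplicate 3-fold dilution series.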

RSV strain A2 = experiment: RSV HEp-2 EC50 (infectious cytopathic cell protection assay); type: cell-based; conditions: human respiratory syncytial virus, HEp-2, 96 h, read-out: RSV HEp-2 EC50
Summary of the method: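 Percent inhibition of RSV-induced cytopathic effect came from remaining cell viability (CellTiter-Glo luminescence) after 4 days at 37° C. Compounds in 3-fold serial dilutions were exposed to an infectious mix of titered A2 virus and HEp-2 cells at 50,000/ml, with 0% and 100% inhibition control standards.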

HELA CC50 (cytotoxicity) = conditions: human, HeLa cells
[4] = MT4 CC50 (cytotoxicity, Cell-Titer Glo); conditions: human
Method: as §1

SMILES	EC50 (DENV2 replicon; Huh-7 replicon cells, 48 hours)	CC50 (in vitro [1])	CC50 (in vitro [2])	CC50 [3]	EC50 (RSV A2; NHBE cells, RSV A2, 4 days)	EC50 (HRV16; H1-HeLa cells, 33° C.)	EC50 (RSV strain A2; HEp-2 cells, RSV A2, 4 days)	EC50 (DENV2 replicon)	CC50 (HELA CC50 (cytotoxicity))	EC50 (RSV A2)	EC50 (HRV16)	CC50 [4]	EC50 (RSV strain A2)
CC(C)OC(=O)[C@H](C)N[P@](=O)(OC[C@@]1(C#N)O[C@@H](c2ccc3c(N)ncnn23)[C@H](OC(=O)C(C)C)[C@@H]1O)Oc1ccccc1 (single isomer, unassigned) [Example 240]	10.6 µM	> 50 µM	> 50 µM	> 50 µM	0.19 µM	1.31 µM	0.166 µM	–	–	–	–	–	–
CCOC(=O)c1ccccc1OP1(=O)OC[C@@]2(C#N)O[C@@H](c3ccc4c(N)ncnn34)[C@H](OC(=O)CC)[C@@H]2O1 (some centres unmarked) [Example 230]	–	–	–	> 50 µM	–	–	–	> 50 µM	> 50 µM	> 5 µM	11.5 µM	> 50 µM	1.65 µM
